# Data published in patent US8785452B2, “Anti-infective compounds” (priority 2008, dated 2014).
# Like-named read-outs stand apart in the source and are kept apart here.
# Assays:
# in vitro = details: human
# M. smegmatis mc^2 155 = test: MIC, in vitro bacterial growth assay; type: cell-based, Mycobacterium smegmatis; details: mc^2 155
# M. tuberculosis H37Ra = test: MIC, in vitro bacterial growth assay; type: cell-based; details: Mycobacterium tuberculosis, H37RA
# M. bovis BCG Pasteur = test: microbe, parasite or virus in culture; type: cell-based; details: Mycobacterium tuberculosis variant bovis BCG
# Primary BMDM = test: Cytotoxicity assay (resazurin); details: 5 days
# [1] = tested on: Gram-negative: Acinetobacter baumannii, Escherichia coli, Enterobacter cloacae, E. aerogenes, Klebsiella oxytoca, Pseudomonas aeruginosa, Salmonella enteridis …; test: Antimicrobial spectrum; type: cell-based; details: Gram-negative panel, clinical isolates from CHU d'Angers
# [2] = tested on: panel of cell lines derived from different body tissue; test: Cytotoxicity assay (resazurin), whole panel; details: 5 days co-incubation, 133 up to 100 μM
# M. tuberculosis H37Rv [3] = test: Conventional CFU determination in infected macrophages; type: cell-based, Mycobacterium tuberculosis; details: human and mouse cells; seven days after infection; 232 at 20 μM
# [4] = tested on: Gram-positive: Staphylococcus aureus, S. epidermis, S. capitis, S. xylosus, Micrococcus luteus, Listeria innocua, Lactobacillus gallinarum, group G …; test: Antimicrobial spectrum; type: cell-based; details: Gram-positive panel, clinical isolates from CHU d'Angers
# [5] = tested on: Primary human macrophages; test: Cytotoxicity assay (resazurin); details: 5 days
# M. tuberculosis H37Rv [6] = test: MIC, in vitro bacterial growth assay; type: cell-based; details: Mycobacterium tuberculosis, H37RV
# BCG Pasteur-Tokyo = test: microbe, parasite or virus in culture; type: cell-based; details: Mycobacterium tuberculosis variant bovis BCG
# [7] = tested on: Fungi: Candida albicans, C. glabrata, C. parapsilosis; test: Antimicrobial spectrum; type: cell-based; details: Candida panel, clinical isolates from CHU d'Angers
# HEK293-Kidney = test: Cytotoxicity assay (resazurin); type: cell-based; details: 5 days
# Experimental: (§1) In order to address compound toxicity, seven cell lines originating from different body tissues were cultivated in the presence of 3-fold dilutions of compounds starting from 100 μM. After 5 days of culture, cell viability was assessed by the resazurin test. Briefly, cells were incubated with 10 μg/mL of resazurin (Sigma-Aldrich St. Louis, Mo.) for 4 h at 37° C. under 5% CO2. Resofurin fluorescence (RFU) was measured as indicated above. Percentage of toxicity on cells was calculated as follows: Cytotoxicity (%)=(RFUDMSO−RFUBlank)−(RFUcompound−RFUblank)/(RFUDMSO−RFUBlank)×100. Percentage of cytotoxicity was plotted against compound concentration and the minimal toxic concentration (MTC50) was determined by non-linear regression analysis as the lowest compound concentration where fifty percent toxicity was observed on the corresponding cell line.
# Jurkat-T-cell = test: Cytotoxicity assay (resazurin); type: cell-based; details: 5 days
# Experimental: as §1
# HepG2-Hepatocytes = test: Cytotoxicity assay (resazurin); type: cell-based; details: 5 days
# Experimental: as §1
# BJ-Skin = test: Cytotoxicity assay (resazurin); type: cell-based; details: 5 days
# Experimental: as §1
# MRC5-Lung = test: Cytotoxicity assay (resazurin); type: cell-based; details: 5 days
# Experimental: as §1
# THP-1-Monocytes = test: Cytotoxicity assay (resazurin); type: cell-based; details: 5 days
# Experimental: as §1
# SK-N-SH-Brain = test: Cytotoxicity assay (resazurin); type: cell-based; details: 5 days
# Experimental: as §1
# C. jeikeium = test: Antimicrobial spectrum; type: cell-based, Corynebacterium; details: C. jeikeium, clinical isolates from CHU d'Angers
# [8] = tested on: M. tuberculosis clinical isolates; type: cell-based, Mycobacterium tuberculosis
# C. striatum = test: Antimicrobial spectrum; type: cell-based, Corynebacterium; details: C. striatum, clinical isolates from CHU d'Angers
smiles,measurement,setting,value
"Cc1cccn2c(=O)c(C=O)c(Nc3cccc(Cl)c3)nc12 [compound 133, 2-(3-Chlorophenylamino)-9-methyl-4-oxo-4H-pyrido[1,2-a]pyrimidine-3-carbaldehyde]",selectivity ratio,in vitro,> 50
same,MIC,"M. smegmatis mc^2 155; Mycolicibacterium smegmatis, MC^2155, read-out: MIC",> 100 µM
same,MIC (μM),M. smegmatis mc^2 155,no effect
same,MIC,M. tuberculosis H37Ra,2 µM
same,MIC,M. bovis BCG Pasteur,2 µM
same,Range of MTC50,Primary BMDM,>100 µM
same,antimicrobial effect,[1],NE (NE: No effect up to 100 μg/mL equivalent to 320 μM)
same,cytotoxicity against the panel of cell lines,[2],no cytotoxicity
same,decrease in the number of CFUs,M. tuberculosis H37Rv [3],ten-fold decrease
same,antimicrobial effect,[4],NE (NE: No effect up to 100 μg/mL equivalent to 320 μM)
same,Range of MTC50,[5],>100 µM
same,MIC,M. tuberculosis H37Rv [6],2 µM
same,MIC,BCG Pasteur-Tokyo,2 µM
same,antimicrobial effect,[7],NE (NE: No effect up to 100 μg/mL equivalent to 320 μM)
same,Range of MTC50,HEK293-Kidney,>100 µM
same,Range of MTC50,Jurkat-T-cell,>100 µM
same,Range of MTC50,HepG2-Hepatocytes,>100 µM
same,Range of MTC50,BJ-Skin,>100 µM
same,Range of MTC50,MRC5-Lung,>100 µM
same,Range of MTC50,THP-1-Monocytes,>100 µM
same,Range of MTC50,SK-N-SH-Brain,>100 µM
same,antimicrobial effect,C. jeikeium,NE (NE: No effect up to 100 μg/mL equivalent to 320 μM)
same,Range of MICs for multiple strains,"[8]; Drug Sensitive, Tissue",2.5 to 5 µM
same,Range of MICs for multiple strains,"[8]; INH^R RIF^R Strep^R, Sputum",0.3 to 1.2 µM
same,Range of MICs for multiple strains,"[8]; INH^R RIF^R Strep^R, Tissue",1.2 µM
same,Range of MICs for multiple strains,"[8]; MDR, Sputum",0.3 to 1.2 µM
same,Range of MICs for multiple strains,"[8]; MDR, Tissue",1.2 µM
same,Range of MICs for multiple strains,"[8]; RIF^R, Sputum",2.5 µM
same,Range of MICs for multiple strains,"[8]; RIF^R, Tissue",1.2 µM
same,Range of MICs for multiple strains,"[8]; XDR, Sputum",0.6 to 2.5 µM
same,Range of MICs for multiple strains,"[8]; XDR, Tissue",0.3 to 5 µM
same,antimicrobial effect,C. striatum,NE (NE: No effect up to 100 μg/mL equivalent to 320 μM)
